Values after ≈ are worked out from the molar mass of the structure shown. Like-named read-outs stand apart in the source and are kept apart here.
Tests used:
S. aureus sortase A = biological target: T1, S. aureus sortase A (Staphylococcus aureus, UniProt Q2FV99); assay: SrtA enzyme FRET inhibition assay (recombinant sortase A, FRET peptide substrate with LPETG motif); format: biochemical; conditions: SrtA inhib. concentration, means ±SD (n = 5)
T1 construct: expressed with an N-terminal deletion of 59 amino acid residues (SrtAΔNS9, residues 60-206); made in house
T1 sequence (Q2FV99 60-206): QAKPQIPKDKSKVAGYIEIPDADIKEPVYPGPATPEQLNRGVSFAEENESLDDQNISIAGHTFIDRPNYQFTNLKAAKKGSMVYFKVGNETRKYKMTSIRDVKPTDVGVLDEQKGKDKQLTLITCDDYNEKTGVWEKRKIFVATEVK
From the text: The catalytically active recombinant sortase A enzyme used for these studies was expressed with an N-terminal deletion of 59 amino acid residues (SrtAΔNS9, residues 60-206). The first step included high-throughput screening of potent S. aereus SrtA inhibitors and selection of new antibacterial substances as sortase A inhibitors. In order to identify potent inhibitors of S. aureus sortase A, a high-throughput screening (HTS) of a diverse library of 50,000 drug-like low-molecular weight molecules was performed, which led to the identification of novel promising drug candidates.
(§1) These assays included determination of 50% SrtA inhibition concentration (IC50) of the newly synthesized derivative in dose-response experiments using the recombinant sortase A enzyme incubated with FRET peptide substrate containing the LPETG motif, minimal inhibitory concentration (MIC) test with two staphylococcal species to measure the antimicrobial efficacy of the new inhibitory molecule, and toxicity test using a normal mouse embryonic fibroblasts cell line NIH/3T3 to determine the cell growth IC50 inhibitory concentration.
Values are means ±SD (n = 5).

S. epidermidis = assay: MIC test, broth dilution micromethod; format: cell-based; conditions: Staphylococcus epidermidis; 24 hours at 37 °C, complete inhibition of cell growth
Experimental: as §1
(§2) The MIC values of test compounds that inhibited cell growth of Gram-positive Staphylococcus aureus and S. epidermidis were determined by broth dilution micromethod. A series of solutions with a range from 0.1 µg/ml to 400 µg/ml were made in using a logarithmical phase culture with OD600 = 0.1 (corresponds to ∼1.2 x 10^8 CFU/ml in 96-well plate standard. The plate was incubated at 37 °C for 24 hours and growth was assayed with a microplate reader by monitoring the absorption at 600 nm. All experiments were done in triplicate, and repeated three times.

Staphylococcus aureus = assay: MIC test, broth dilution micromethod; format: cell-based; conditions: for MIC: Staphylococcus aureus, 24 hours at 37 °C, complete inhibition of cell growth, read-out: MIC, S.aureus
Experimental: as §1, §2

NIH/3T3 cells = assay: Cytotoxicity (MTT cell growth inhibition) test; format: cell-based; conditions: Mus musculus, read-out: 50% NIH/3T3 cell growth inhibition concentration, (IC50)
Experimental: as §1
The growth inhibitory effect of the newly synthesized compound was studied on NIH/3T3mouse fibroblast cell line. NIH/3T3 cells were seeded into 96-well microplates with initial density of 1x10^4 cells per well in DMEM culture medium with 10% FCS. After 24 hours of incubation, cells were exposed to a graded series of concentrations of chemical compounds for additional 48 hours. The cell medium was removed and 100 µl of fresh culture medium without phenol red and 1 mM MTT solution was added to each well. After 3 hours of incubation, an equal volume of 1% SDS-HCl solution was added and plates were incubated for additional 4 hours. Absorbance was measured at 570 nm and the data were fitted to a four parameter variable slope equation to determine the IC50 value. […]

SrtA = biological target: T2, SrtA (Staphylococcus aureus, UniProt Q2FV99); assay: Binding to SrtA monitored by 2D [15N,1H]-HSQC NMR spectroscopy, with dialysis; conditions: 0.3 mM (1.0 equivalents) inhibitor, after dialysis against NMR sample buffer
T2 construct: expressed with an N-terminal deletion of 59 amino acid residues (SrtAΔNS9, residues 60-206); made in house
T2 sequence (Q2FV99 60-206): as above
From the text: • Fig. 1 - represents the binding of a selected inhibitor N-(adamantan-1-yl)-2-(3-oxo-2,3-dihydro-1,2-benzothiazol-2-yl)acetamide to SrtA monitored by 2D [^15N,^1H]-HSQC NMR spectroscopy. (a) Spectrum of SrtA in absence of inhibitor. […] (a) SrtA active site after modification by inhibitor. The inhibitor (in cyan) and near-by side chains of SrtA are shown with sticks and labeled. Side chains are colored according to their type: hydrophobic in yellow, negatively charged in red, positively charged in blue and hydrophilic in grey. Hydrogens are omitted for clarity. […] (c) Molecular surface representation of SrtA in complex with inhibitor. It can be seen in the figure that the inhibitor occupies almost all volume of the substrate pocket, the majority of interactions are hydrophobic and hydrogen bond is at the R139.
Determination of the complex structure of selected inhibitor and sortase enzyme was performed by using the nuclear magnetic resonance (NMR) spectroscopy methods. The collected NMR data allowed to specify the structure of inhibitory complexes.
To verify that the selected inhibitor can react with a cysteine thiol (such as the SrtA active site C 184) we performed a reaction with cysteine in the NMR tube and observed the formation of a covalent adduct (Figure 2). The chemical structure of the product was verified using proton 1D and 2D NMR methods.

Row | Structure (SMILES) | IC50 (S. aureus sortase A) | MIC (S. epidermidis) | MIC (Staphylococcus aureus) | MIC values of the new compound in comparison to the initial hit molecule (Staphylococcus aureus; average over S. aureus and S. epidermidis) | IC50 (NIH/3T3 cells; NIH3T3, 48 hours exposure, MTT, mean of three independent experiments ±SD) | IC50 (NIH/3T3 cells; NIH3T3, 48 h) | binding of inhibitor to SrtA (reversibility) (SrtA)
1 | O=C(Cn1sc2ccccc2c1=O)NNC(=O)C12CC3CC(CC(C3)C1)C2 [N'-(2-(3-oxobenzo[d]isothiazol-2(3H)-yl)acetyl)adamantane-1-carbohydrazide] | 3.8 µM | 4 µg/mL (≈ 10.4 µM) | 16 µg/mL (≈ 41.5 µM) | ~10 fold | 12.1 µg/mL (≈ 31.4 µM) | – | –
2 | O=C(Cn1sc2ccccc2c1=O)NC12CC3CC(CC(C3)C1)C2 [N-(adamantan-1-yl)-2-(3-oxo-2,3-dihydro-1,2-benzothiazol-2-yl)acetamide] | 6.2 µM | 0.5 µg/mL (≈ 1.46 µM) | 1 µg/mL (≈ 2.92 µM) | – | – | 1.3 µg/mL (≈ 3.8 µM) | irreversibly

Source: patent EP2875815A1, “N'-(2-(3-oxobenzo[d]isothiazol-2(3h)-yl)acetyl)adamantane-1-carbohydrazide as a novel inhibitor for staphylococcus aureus sortase a” (Latvian Biomedical Research and Study Centre, priority 2013, dated 2015)
